Results: patent US20170354650A1, “QUINOLINE DERIVATIVES FOR INHIBITING HISTONE METHYLTRANSFERASES AND USE THEREOF” (KOREA INSTITUTE OF SCIENCE AND TECHNOLOGY, priority 2016, published 2017)

Tests used:
[1] = tested on: ESET/SETDB1; assay: Screening with Tet-inducible ESET/SETDB1 cell line (dot blot analysis, FIG. 1); assay type: cell-based; conditions: among 107 selected library compounds
Experimental: In order to find compounds that inhibit the ESET/SETDB1 enzyme, 107 compounds expected to inhibit the activity of ESET/SETDB1 were selected through structural modeling from a compound library. These compounds were screened using a Tet-inducible ESET cell line.
Tet-Inducible ESET (H3K9 Specific Histone Methyltransferase) Cell Line (Tetracycline-Inducible ESET Cells):
A Tet-inducible ESET cell line was prepared using the T-REx™ system available from Invitrogen. The myc-ESET gene was subcloned into pcDNA5/TO and transfected into somatic mother cells (STHdh^Q7/7, striatal cells) using pcDNA6/TR.
Confocal Microscopy for Determination of H3K9me3 (Confocal Microscopy for Identification of Change in Heterochromatin Condensation by H3K9Me3 and Drug)
An indirect fluorescence labeling method using fluorescein-conjugated secondary antibodies was used. After fixing ESET inducible cells with 4% PFA and incubating with H3K9me3 (rabbit antibody; dilution, 1:200; Millipore) primary antibodies, the cells were incubated with fluorescence-conjugated secondary antibodies (Alexa 594; dilution, 1:400; Thermo). Images were obtained using a confocal microscope (IX2-DSU, Olympus, Tokyo, Japan).
Among those compounds, #7 compound was a quinolone derivative, which is selected as a hit-compound through the instant experiment. The #7 compound in FIG. 1 is Compound 8 in the present invention.

[2] = tested on: trimethylation of H3K9 (H3K9me3); assay: Change in H3K9 trimethylation in brain of YAC128 mouse; assay type: in vivo; conditions: striatal brain tissue of YAC128 mouse, anti-H3K9me3 blot, FIGS. 4A and 4B
Experimental: After adding the striatal brain tissue of YAC128 mouse to 1 mL of PBS containing 0.4 mM sodium butyrate, 5% Triton X-100, 3 mM DTT, 1 mM sodium orthovanadate, 5 mM sodium fluoride, 3 mM PMSF, 0.5 mg/mL leupeptin and 10 mg/mL aprotinin, a cell homogenate was obtained using a Downce crusher. After centrifugation at 3000 rpm for 10 minutes, the supernatant was removed. The precipitating cell pellet was washed twice with a 5% Triton buffer and histone was extracted with 0.2 M HCl. After neutralizing the histone-containing solution to neutral pH with 1 N NaOH, proteins were quantitated and separated by 15% SDS-PAGE. The change in trimethylation of H3K9 (H3K9me3) was investigated using anti-H3K9me3 (rabbit antibody; dilution, 1:1000; Millipore).

[3] = tested on: transgenic YAC128 mouse; assay: Rotarod performance test in YAC128 animal model; assay type: in vivo; conditions: 15-month-old male YAC128 mice, 0.636 mg/kg for 3 weeks, 5 days a week, 5 rpm, compared to the vehicle, FIG. 3
Experimental: The effect of the compound according to the present disclosure on motor ability was evaluated using the transgenic YAC128 mouse which expresses the human Huntingtin gene containing 128 CAG repeat sequences as a model of Huntington's disease (HD) (Menalled L et al., 2009, Neurobiol Dis 35(3):319-36). The Huntington's disease model mouse is reported to show decline in motor ability, which is the typical pathological symptom of Huntington's disease, from 6 around months after birth, progress of neurodegeneration from 9 months and aggregation of mutant Huntington's genes in striatal neurons from around 18 months.
Rotarod performance test was conducted using 15-month-old male YAC128 mice. The drug was administered (0.636 mg/kg) for 3 weeks, 5 days a week, and the rotarod test was performed on the 5th day of each week.
The mouse was placed on a rotating rod (4 cm in diameter) and riding time was measured. The experiment was performed 4 times on the same day and 60 seconds was given to each mouse. The rotarod rotation speed was set to 5 rpm. The period of time until the mouse fell to the ground was measured. When the mouse remained longer than 60 seconds on the rod, the riding time was recorded as 60 seconds. The recorded time was statistically analyzed and was used as an indicator of the motor ability and balance of the mouse.

[4] = molecular target: T1, ESET/SETDB1 enzyme (Homo sapiens, UniProt Q15047); assay: SETDB1 chemiluminescence enzyme assay (BPS Bioscience kit); assay type: biochemical; conditions: test compound 1-100 μM, FIG. 2
T1 construct: purchased BPS Bioscience
Experimental: In order to investigate the inhibitory effect against the activity of the ESET/SETDB1 enzyme of the compounds according to the present disclosure, SETDB1 chemiluminescence assay was conducted for the compound 8. The SETDB1 assay was performed using the SetDB1 chemiluminescent assay kit (BPS Bioscience) according to the manufacturer's protocol. S-Adenosylmethionine (SAM, stock concentration 20 μM) was used as a […]. First, SAM and the test compounds were prepared to final concentrations of 1 μM, 3 μM, 10 μM, 30 μM and 100 μM by diluting with DMSO (final volume 1 μL). 150 μL of a TBST buffer (1X TBS, pH 8.0, containing 0.05% Tween-20) was added to each well of a 96-well plate and hydrated at room temperature for 15 minutes. A master mix containing an assay buffer, the compound 8 and the SETDB1 enzyme was prepared.
25 μL (7.5 μL 4×HMT buffer+2.5 μL 20 μM SAM+15 μL H2O) of the prepared master mix was added to each well of the plate. Then, 1 μL of the test compound (1 μM, 3 μM, 10 μM, 30 μM or 100 μM) and 20 μL of the diluted SetDB1 enzyme were added sequentially. […] Chemiluminescence resulting from the reaction between the HRP-conjugated secondary antibody and the added HRP substrate was measured using a chemiluminescence reader (Molecular Devices microplate reader) and the result was analyzed using the SoftMax Pro software.

Compound | inhibitory effect against ESET/SETDB1 [1] | intensity of trimethylated H3K9 [2] | riding time on the rod [3] | trimethylation of H3K9 (H3K9me3) [4]
C=CCOc1cccc2nc(Nc3ccccc3)ccc12 [Compound 11, 5-allyloxy-N-phenylquinolin-2-amine] | significant inhibitory effect | – | – | –
C=CCOc1cccc2nc(N3CCCC3)ccc12 [Compound 8, 5-allyloxy-2-(pyrrolidin-1-yl)quinoline] | significant inhibitory effect | remarkably decreased | remarkably increased | remarkably decreased
C=CCNc1cccc2nc(N3CCCCC3)ccc12 [Compound 4, 2-(piperidin-1-yl)-N-allylquinolin-5-amine] | significant inhibitory effect | – | – | –
